Data: patent US9510598B2, “Nitrogen-containing heterocyclic compounds for plant disease control” (BAYER CROPSCIENCE AG, priority 2012, dated 2016)
Values joined by “and” are separate entries in the source; they are usually repeats but may differ in a detail not shown here. Identical values can stand only once. Like-named read-outs stand apart in the source and are kept apart here.

Experiments:
[1] = format: physicochemical
Botrytis cinerea = test: In vivo preventive test on Botrytis cinerea (grey mould); details: 500 ppm; gherkin plants sprayed 24 hours before contamination; grading 4-5 days after contamination vs control plants
Description: Gherkin plants (“Vert petit de Paris” variety), sown in starter cups on a 50/50 peat soil-pozzolana substrate and grown at 24° C., are treated at the Z11 cotyledon stage by spraying with the active ingredient prepared as described above. Plants, used as controls, are treated with the mixture of acetone/tween/DMSO/water not containing the active material. After 24 hours, the plants are contaminated by spraying the cotyledons with an aqueous suspension of cryopreserved Botrytis cinerea spores (50 000 spores per ml). The spores are suspended in a nutrient solution composed of 10 g/L of PDB, 50 g/L of D-Fructose, 2 g/L of NH4NO3 and 1 g/L of KH2PO4. The contaminated gherkin plants are incubated at 17° C. and at 80% relative humidity. Grading (% of efficacy) is carried out 4-5 days after the contamination, in comparison with the control plants.

Septoria tritici = test: In vivo preventive test on Septoria tritici (leaf spot on wheat); details: 500 ppm; wheat plants sprayed 24 hours before contamination; grading 21 to 28 days after contamination vs control plants
How it was run: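 Scipion wheat at 1-leaf stage sprayed with compound, controls receiving acetone/tween/DMSO/water vehicle; 24 h later leaves inoculated with Septoria tritici spores (500 000 spores per ml). Efficacy (%) graded versus control plants 21 to 28 days after contamination.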

Sphaerotheca fuliginea = test: In vivo preventive test on Sphaerotheca fuliginea (powdery mildew on cucurbits); details: 500 ppm; gherkin plants sprayed 24 hours before contamination; grading 12 days after contamination vs control plants
Description: Gherkin plants (“Vert petit de Paris” variety), sown in starter cups on a 50/50 peat soil-pozzolana substrate and grown at 24° C., are treated at the Z11 cotyledon stage by spraying with the active ingredient prepared as described above. Plants, used as controls, are treated with the mixture of acetone/tween/DMSO/water not containing the active material. After 24 hours, the plants are contaminated by spraying the cotyledons with an aqueous suspension of Sphaerotheca fuliginea spores (100 000 spores per ml). The spores are collected from infected plants. […] Grading (% of efficacy) is carried out 12 days after the contamination, in comparison with the control plants.

[2] = HPLC on reversed phase columns, method [a]: pH 2.7, 0.1% formic acid in water / acetonitrile, linear gradient 10% to 95% acetonitrile
[3] = method [a]: HPLC/LC-MS on reversed phase at pH 2.7, 0.1% formic acid in water / acetonitrile, gradient 10% to 95% acetonitrile
[4] = method [a]: HPLC/LC-MS on reversed phase at pH 2.7, 0.1% formic acid in water / acetonitrile, linear gradient 10% to 95% acetonitrile

| Compound | log P [1, 2] | % of efficacy (protection) (Septoria tritici) [%] | % of efficacy (protection) (Sphaerotheca fuliginea) | also measured |
| --- | --- | --- | --- | --- |
| C#Cc1cnc2c(Cl)cc(C3=NOC(C)(C(=O)NCc4cnc(C)cn4)C3)cc2c1 (centres unmarked) [compound 558] | 2.39[a] | 100 | 85% | % of efficacy (protection) (Botrytis cinerea): 97% |
| CNC(=O)C1(C)CC(c2ccc3ncc(Br)cc3c2)=NO1 (centres unmarked) [compound 532] | 2.07[a] | 100 | 89% | % of efficacy (protection) (Botrytis cinerea): 100% |
| C#Cc1cnc2ccc(C3=NOC(CC)(C(=O)NC4CC4)C3)cc2c1 (racemic) [compound 439] | – | 93 | 78% | log P [1, 3]: 2.44[a] |
| C#Cc1cnc2ccc(C3=NOC(C)(C(=O)NC4CC4)C3)cc2c1 (centres unmarked) [compound 314] | 2.13[a] | 100 | 81% | – |
| C#Cc1cnc2ccc(C3=NOC(C)(C(=O)NC(C)C(F)(F)F)C3)cc2c1 (centres unmarked) [compound 343] | 2.77[a] | 100 | 100% | – |
| CC(C)NC(=O)C1(C)CC(c2ccc3ncc(Cl)cc3c2)=NO1 (centres unmarked) [Compound No. 55] | – | 100 | 94% and 98% | chromatographic logP ([1]; pH 2.7): 2.61; % of efficacy (protection) (Botrytis cinerea): 99% |
| C#Cc1cnc2ccc(C3=NOC(OC)(C(=O)NCCCOCC)C3)cc2c1 (centres unmarked) [compound 408] | – | 100 | 100% | log P [1, 3]: 2.39[a] |
| CCOCCCNC(=O)C1(OC)CC(c2ccc3ncc(I)cc3c2)=NO1 (racemic) [compound 448] | – | 98 | 100% | log P [1, 3]: 2.80[a]; % of efficacy (protection) (Botrytis cinerea): 98% |
| C#Cc1cnc2ccc(C3=NOC(C)(C(=O)NC(C)CC(=O)OCC)C3)cc2c1 (mixture of isomers) [compound 453] | – | – | 88% | log P [1, 3]: 2.57[a] |
| C#Cc1cnc2c(Cl)cc(C3=NOC(C)(C(=O)NCC4COC(C)(C)O4)C3)cc2c1 (centres unmarked) [compound 559] | 2.84[a] | 100 | 85% | % of efficacy (protection) (Botrytis cinerea): 95% |
| CCOCCCNC(=O)C1(C)CC(c2cc(C)c3ncc(Br)cc3c2)=NO1 (racemic) [compound 547] | 3.48[a] | – | 100% | % of efficacy (protection) (Botrytis cinerea): 100% |
| CC1(C(=O)NCCCOCC(F)(F)F)CC(c2ccc3ncc(Br)cc3c2)=NO1 (centres unmarked) [compound 323] | 3.11[a] | 78 | 81% | – |
| C#Cc1cnc2ccc(C3=NOC(C)(C(=O)NC(C)c4ccsc4)C3)cc2c1 (centres unmarked) [compound 336] | 2.96[a] | 100 | 81% | – |
| CC(NC(=O)C1(C)CC(c2ccc3ncc(Br)cc3c2)=NO1)c1ccncc1 (centres unmarked) [compound 337] | 1.44[a] | 78 | 88% | – |
| CCOC(=O)CC(C)NC(=O)C1(C)CC(c2ccc3ncc(Br)cc3c2)=NO1 (mixture of isomers) [compound 505] | – | – | 98% | % of efficacy (protection) (Botrytis cinerea): 75% |
| C#Cc1cnc2ccc(C3=NOC(C)(C(=O)NCCCOCC(F)(F)F)C3)cc2c1 (centres unmarked) [compound 326] | 2.77[a] | 98 | 88% | – |
| CCSc1cnc2ccc(C3=NOC(C)(C(=O)NC(C)C)C3)cc2c1 (centres unmarked) [compound 277] | 2.81[a] | – | 71% | – |
| CSc1cnc2ccc(C3=NOC(C)(C(=O)NC(C)C)C3)cc2c1 (centres unmarked) [compound 80] | – | – | 93% | log P [1, 4]: 2.44^[a] |

| Compound | log P [1, 2] | % of efficacy (protection) (Septoria tritici) [%] | % of efficacy (protection) (Sphaerotheca fuliginea) | also measured |
| --- | --- | --- | --- | --- |
| CCC(COC)NC(=O)C1(C)CC(c2ccc3ncc(Br)cc3c2)=NO1 (racemic) [compound 377] | – | 100 | 98% | log P [1, 3]: 2.88[a] |
| CCn1cc(CNC(=O)C2(OC)CC(c3cc(Cl)c4ncc(Br)cc4c3)=NO2)c(C)n1 (centres unmarked) [compound 566] | 2.78[a] | 100 | 89% | – |
| COCC(C)NC(=O)C1(C)CC(c2ccc3ncc(Br)cc3c2)=NO1 (racemic) [compound 368] | – | 100 | 100% | log P [1, 3]: 2.54[a] |
| Cn1cc(CNC(=O)C2(C)CC(c3ccc4ncc(Br)cc4c3)=NO2)cn1 (centres unmarked) [compound 176] | – | 93 | 83% | log P [1, 4]: 2.07^[a] |
| C=CC1(C(=O)NC(C)C)CC(c2ccc3ncc(I)cc3c2)=NO1 (centres unmarked) [compound 731] | – | 100 | 75% | log P ([1]; HPLC on reversed phase columns, method [a]: pH 2.7, 0.1% formic acid in water and acetonitrile, linear gradient 10% to 95% acetonitrile): 3.21[a] |
| CC(C)NC(=O)C1(C)CC(c2ccc3ncc(C#C[Si](C)(C)C)cc3c2)=NO1 (centres unmarked) [Compound No. 150] | – | 100 | 95% | chromatographic logP ([1]; HPLC reversed phase, pH 2.7, 0.1% formic acid in water / acetonitrile, linear gradient 10% to 95% acetonitrile, calibration with alkan-2-ones, read-out: log P (HCOOH)): 4.41 |
| C#Cc1cnc2ccc(C3=NOC(C)(C(=O)NC(C)C4CCOC4)C3)cc2c1 (centres unmarked) [compound 341] | 2.18[a] | 100 | 98% | – |
| CCn1cc(CNC(=O)C2(C(F)(F)F)CC(c3cc4cc(Br)cnc4c(F)c3F)=NO2)c(C)n1 (centres unmarked) [compound 6] | – | 71 | 89% | Log P ([1]; method [a]: HPLC/LC-MS on reversed phase at pH 2.7, 0.1% formic acid in water and acetonitrile, linear gradient 10% to 95% acetonitrile): 3.23^[a] |
| CCOCC(C)NC(=O)C1(C)CC(c2ccc3ncc(Br)cc3c2)=NO1 (mixture of isomers) [compound 374] | – | 100 | 100% | – |
| C#Cc1cnc2ccc(C3=NOC(C)(C(=O)NC(C)c4nccs4)C3)cc2c1 (centres unmarked) [compound 334] | 2.28[a] | 100 | 94% | – |
| CCn1cc(CNC(=O)C2(CF)CC(c3ccc4ncc(Br)cc4c3)=NO2)c(C)n1 (centres unmarked) [compound 75] | – | – | 94% and 98% | log P [1, 4]: 2.31^[a]; % of efficacy (protection) (Botrytis cinerea): 93% |
| C#CCONC(=O)C1(C)CC(c2ccc3ncc(C#C)cc3c2)=NO1 (centres unmarked) [compound 503] | – | 71 | 78% | log P [1, 3]: 1.95[a] |
| CC(NC(=O)C1(C)CC(c2ccc3ncc(Br)cc3c2)=NO1)C(F)(F)F (centres unmarked) [compound 345] | 3.13[a] | 100 | 94% | – |
| CC1COCCC1NC(=O)C1(C)CC(c2ccc3ncc(Br)cc3c2)=NO1 (mixture of isomers) [compound 309] | – | 86 | 100% | – |
| CC(NC(=O)C1(C)CC(c2ccc3ncc(Br)cc3c2)=NO1)C1CC1 (centres unmarked) [compound 332] | 3.17[a] | 100 | 98% | – |
| COC1(C(=O)NC(C)C)CC(c2ccc3ncc(Br)cc3c2)=NO1 (single isomer, unassigned) [compound 284] | 2.58[a] | 100 | 100% | – |
| CCn1cc(CNC(=O)C23CCCC2C(c2ccc4ncc(Br)cc4c2)=NO3)c(C)n1 (centres unmarked) [compound 261] | 2.75^[a] | 97 | 85% | – |
